Source: US8993594B2, “Isoquinolin-1(2H)-one derivatives as PARP-1 inhibitors” (Nerviano Medical Sciences S.R.L., priority 2009, dated 2015)
Where a name gives a salt, the structure may show the parent alone.

Tests used:
[1] = target: PARP-1 FL (Homo sapiens, UniProt P09874); assay: Fluorescence polarization probe displacement assay; type: binding; settings: for DC50: half maximal displacement concentration
Procedure: (§1) Affinity of the tested compounds and their selectivity with respect to the different PARP isoforms of interest was quantified in a displacement assay.
(§2) In all of the experiments, the polarization signal was measured using a Saphire2 plate reader (Tecan). Data analysis was performed using Dynafit software. In particular, titration data were fitted to the following equilibria: Enzyme+probe <==> Complex Enzyme-probe, while displacement data were fitted to the following equilibria: Enzyme+probe <==> Complex Enzyme-probe, Enzyme+Compound <==> Complex Enzyme-Compound, whereby binding of probe and compound on the enzyme are mutually exclusive (pure competitive mechanism). Displacement data were also fitted using Excel spreadsheet (Microsoft Inc. Seattle, USA) to a four parameter logistic model (4PL), or Hill-Slope model to calculate DC50s where the DC50 value represents the compound concentration at which the polarization signal is diminished by 50% compared to untreated controls.
(§3) In agreement, affinity binding constants (KD) were determined by fitting with a pure competitive mechanism. KD values are the average of three independent experiments.

[2] = target: PARP-2 FL (Homo sapiens, UniProt Q9UGN5); assay: Fluorescence polarization probe displacement assay; type: binding; settings: for DC50: compound P1 as the probe
Chain of PARP-2 FL (Q9UGN5 whole entry): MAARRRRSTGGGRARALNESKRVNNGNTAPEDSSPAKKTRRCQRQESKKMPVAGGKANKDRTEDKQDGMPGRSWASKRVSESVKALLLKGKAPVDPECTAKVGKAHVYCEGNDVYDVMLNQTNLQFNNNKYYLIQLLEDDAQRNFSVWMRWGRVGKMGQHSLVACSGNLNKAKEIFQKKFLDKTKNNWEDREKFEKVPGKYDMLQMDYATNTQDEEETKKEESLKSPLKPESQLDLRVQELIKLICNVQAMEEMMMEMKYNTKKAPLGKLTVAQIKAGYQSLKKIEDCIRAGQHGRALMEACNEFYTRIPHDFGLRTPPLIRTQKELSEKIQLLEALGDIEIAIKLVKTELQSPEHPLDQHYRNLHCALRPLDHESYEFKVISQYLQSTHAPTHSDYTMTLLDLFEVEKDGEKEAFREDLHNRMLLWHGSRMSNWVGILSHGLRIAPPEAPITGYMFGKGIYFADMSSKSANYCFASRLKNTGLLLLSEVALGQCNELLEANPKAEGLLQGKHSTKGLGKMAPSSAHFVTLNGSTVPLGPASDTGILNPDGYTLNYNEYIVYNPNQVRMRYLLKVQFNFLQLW
Procedure: as §1, §2, §3

[3] = test system: hydrogen peroxide induced PAR formation in HeLa cells; assay: Cellular PAR assay (inhibition of hydrogen peroxide induced PAR formation); type: cell-based; settings: Homo sapiens, 0.1 mM hydrogen peroxide 15 min
Procedure: Compounds potencies were evaluated by measuring the inhibition of poly (ADP-ribose) (PAR) chains formation as a marker for PARP-1 inhibition.
Cellular activity of PARP-1 inhibitors was assessed by measuring the inhibition of the hydrogen peroxide induced PAR formation in HeLa cells (ECACC). Cellular PAR levels were measured by immunocytochemistry and quantified using an ArrayScan vTi instrument (Cellomics Thermo Scientific).
Studies were performed as follows: 6000 cells/well were seeded in 96 well plates (Perkin Elmer) in MEM/10% FCS and incubated for 24 hours at 37° C., 5% carbon dioxide. Test compounds were then added at the required concentration for 30′. […] Concentration curves were prepared in MEM/10% FCS from compound stocks in DMSO and final DMSO concentration was 0.002% (v/v). Duplicate wells for each concentration point were prepared with a typical highest compound concentration of 20 μM and serial dilution 1:3. […] Non-specific binding sites were blocked by incubating wells for 30 min in PBS containing 5% (w/v) FBS 0.05% tween20. […] After washing further 3 times in PBS, cellular PAR immunoreactivity was assessed using the ArrayScan vTi instrument, with a Zeiss 10×0.5 N.A. objective, and applying the Cytotoxicity.V3 algorithm (Cellomics/Thermo Fisher) with a XF100 filter. At least 10 fields, corresponding to at least 900 cells, were read for each well.
The following formula is used: IC50=Bottom+(Top−Bottom)/(1+10^((Log EC50−X))); X is the logarithm of concentration. IC50 is the response; IC50 starts at Bottom and goes to Top with a sigmoid shape.

[4] = Pharmacokinetics and oral bioavailability in the mouse; type: in vivo
Procedure: The compounds were formulated in 10% tween 80/dextrose for intravenous bolus administration while oral administrations were performed using the compounds formulated in 0.5% methylcellulose. A single administration at the dose of 10 mg/kg was given and three male animals for each route were used. […] Plasma samples were prepared by plasma proteins precipitation adding 200 µl of methanol to 10 µl of plasma in a 96 well plate. […] The supernatant was considered as final extract and injected onto the LC-MS-MS system (HPLC system: Hewlett Packard 1100 series using Atlantis HILIC Silica 50*2.1 mm 5.0 μM analytical column; MS instrument: Perkin Elmer SCIEX API 2000 and ionization performed with Turbo Ion Spray in positive ion mode). Lower limit of quantification is 5.0 ng/ml, upper limit of quantification is 10000 ng/ml. […] Non-compartmental method (linear trapezoidal rule and linear regression analysis of natural log-transformed plasma concentrations vs. time data) was used. After intravenous dosing, C0 was set equal to C0.083, Absolute bioavailability (F) was calculated from the ratio of average oral to IV (intravenous) dose-normalized plasma AUC (area under curve) values.

Chain of PARP-1 FL (P09874 whole entry): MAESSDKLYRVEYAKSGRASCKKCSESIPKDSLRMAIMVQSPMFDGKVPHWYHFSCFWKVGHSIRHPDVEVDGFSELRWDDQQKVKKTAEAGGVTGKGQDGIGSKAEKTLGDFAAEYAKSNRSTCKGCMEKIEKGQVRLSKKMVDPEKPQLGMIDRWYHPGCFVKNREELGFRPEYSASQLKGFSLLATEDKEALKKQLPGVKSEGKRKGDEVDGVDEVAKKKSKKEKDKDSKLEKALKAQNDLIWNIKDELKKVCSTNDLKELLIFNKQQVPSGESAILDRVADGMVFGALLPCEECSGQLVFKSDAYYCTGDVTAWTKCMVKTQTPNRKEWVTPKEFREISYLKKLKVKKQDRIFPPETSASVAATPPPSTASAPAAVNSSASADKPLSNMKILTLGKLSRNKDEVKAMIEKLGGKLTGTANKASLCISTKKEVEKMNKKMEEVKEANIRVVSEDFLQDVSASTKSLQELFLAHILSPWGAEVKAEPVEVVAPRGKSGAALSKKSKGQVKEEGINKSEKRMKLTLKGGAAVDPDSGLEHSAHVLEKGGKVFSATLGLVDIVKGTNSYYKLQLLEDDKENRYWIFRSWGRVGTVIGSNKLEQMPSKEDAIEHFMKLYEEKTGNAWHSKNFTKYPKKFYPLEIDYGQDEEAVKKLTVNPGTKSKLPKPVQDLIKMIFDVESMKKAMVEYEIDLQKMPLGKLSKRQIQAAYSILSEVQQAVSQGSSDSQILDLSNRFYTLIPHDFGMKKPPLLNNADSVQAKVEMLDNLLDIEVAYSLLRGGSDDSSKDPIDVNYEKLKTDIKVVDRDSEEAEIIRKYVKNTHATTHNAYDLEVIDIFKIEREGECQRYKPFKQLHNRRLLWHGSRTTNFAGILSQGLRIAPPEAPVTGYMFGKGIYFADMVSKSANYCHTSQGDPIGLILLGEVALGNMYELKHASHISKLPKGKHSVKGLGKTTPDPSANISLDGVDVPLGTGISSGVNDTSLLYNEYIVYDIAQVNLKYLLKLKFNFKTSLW

NCCOc1c(-c2ccccc2)[nH]c(=O)c2ccccc12 [Compound 1, 4-(2-Amino-ethoxy)-3-phenyl-2H-isoquinolin-1-one hydrochloride]
Kd [1]: < 0.03 µM
DC50 [1]: < 0.25 µM
Kd [2]: 3.07 µM
DC50 [2]: 2.89 µM
IC50 [3]: 0.79 µM

CC(=O)NCCOc1c(-c2ccccc2)[nH]c(=O)c2ccccc12 [Compound 2, N-[2-(1-Oxo-3-phenyl-1,2-dihydro-isoquinolin-4-yloxy)-ethyl]-acetamide]
Kd [1]: 0.2 µM
DC50 [1]: 0.32 µM
Kd [2]: 6.28 µM
IC50 [3]: 6.72 µM

NCCCOc1c(-c2ccccc2)[nH]c(=O)c2ccccc12 [Compound 3, 4-(3-Amino-propoxy)-3-phenyl-2H-isoquinolin-1-one hydrochloride]
Kd [1]: < 0.03 µM
DC50 [1]: < 0.25 µM
Kd [2]: 3.92 µM
DC50 [2]: 4.1 µM
IC50 [3]: 3.26 µM

NC(=O)c1cccc(N)c1 [Compound 3-AB, 3-aminobenzamide, reference compound]
Displacement of the probe (compound P1 or compound P3) ([1]; from all of the tested PARP isoforms): fully displaced

CC(=O)NCCCOc1c(-c2ccccc2)[nH]c(=O)c2ccccc12 [Compound 4, N-[3-(1-Oxo-3-phenyl-1,2-dihydro-isoquinolin-4-yloxy)-propyl]-acetamide]
Kd [1]: 0.19 µM
DC50 [1]: 0.31 µM
Kd [2]: 0.95 µM
DC50 [2]: 0.91 µM

O=c1[nH]c(-c2ccccc2)c(OCCCN2CCCCC2)c2ccccc12 [Compound 5, 3-Phenyl-4-(3-piperidin-1-yl-propoxy)-2H-isoquinolin-1-one trifluoroacetate]
Kd [1]: < 0.03 µM
DC50 [1]: < 0.25 µM
Kd [2]: 4.59 µM
DC50 [2]: 4.34 µM
IC50 [3]: 1.44 µM

O=c1[nH]c(-c2ccccc2)c(OCCN2CCNCC2)c2ccccc12 [Compound 6, 3-Phenyl-4-(2-piperazin-1-yl-ethoxy)-2H-isoquinolin-1-one di-hydrochloride]
Kd [1]: < 0.03 µM
DC50 [1]: < 0.25 µM
Kd [2]: > 10 µM
DC50 [2]: > 10 µM
IC50 [3]: 0.86 µM

CC(=O)N1CCN(CCOc2c(-c3ccccc3)[nH]c(=O)c3ccccc23)CC1 [Compound 7, 4-[2-(4-Acetyl-piperazin-1-yl)-ethoxy]-3-phenyl-2H-isoquinolin-1-one]
Kd [1]: < 0.03 µM
DC50 [1]: < 0.25 µM
Kd [2]: > 10 µM
DC50 [2]: > 10 µM

O=C(NCCCOc1c(-c2ccccc2)[nH]c(=O)c2ccccc12)c1ccccc1 [Compound 8, N-[3-(1-Oxo-3-phenyl-1,2-dihydro-isoquinolin-4-yloxy)-propyl]benzamide]
DC50 [1]: 0.82 µM
DC50 [2]: 4.29 µM

COc1cccc(-c2[nH]c(=O)c3ccccc3c2OCCN2CCCCC2)c1 [Compound 9, 3-(3-Methoxy-phenyl)-4-(2-piperidin-1-yl-ethoxy)-2H-isoquinolin-1-one]
DC50 [1]: 0.37 µM
DC50 [2]: 0.86 µM

COc1cccc(-c2[nH]c(=O)c3ccccc3c2OCCCN2CCCCC2)c1 [Compound 10, 3-(3-Methoxy-phenyl)-4-(3-piperidin-1-yl-propoxy)-2H-isoquinolin-1-one]
Kd [1]: 0.05 µM
DC50 [1]: 0.35 µM
Kd [2]: 4.39 µM
IC50 [3]: 0.33 µM

CNCCCOc1c(-c2ccccc2)[nH]c(=O)c2ccccc12.Cl [Compound 12, 4-(3-Methylamino-propoxy)-3-phenyl-2H-isoquinolin-1-one hydrochloride]
Kd [1]: 0.05 µM
DC50 [1]: < 0.25 µM
Kd [2]: 1.65 µM
DC50 [2]: 2.91 µM
IC50 [3]: 0.42 µM
F on AUC ([4]; 10 mg/kg, ratio of oral to IV dose-normalized plasma AUC): 17%
clearance ([4]; male, Balb Nu/Nu, plasma, 10 mg/kg intravenous bolus, mean value, read-out: CL(IV bolus)): 177 mL/min/kg
Vd ([4]; male, Balb Nu/Nu, plasma, 10 mg/kg intravenous bolus, mean value, read-out: Vdss (IV bolus)): 3.3 L/kg
AUC ([4]; male, Balb Nu/Nu, plasma, 10 mg/kg oral, mean value): 0.52 µM·h
half-life ([4]; male, Balb Nu/Nu, plasma, 10 mg/kg oral, mean value, read-out: T½ (oral) (converted)): 1.19 h

O=c1[nH]c(-c2ccccc2)c(OCCCN2CCNCC2)c2ccccc12 [Compound 14, 3-Phenyl-4-(3-piperazin-1-yl-propoxy)-2H-isoquinolin-1-one di-hydrochloride]
Kd [1]: < 0.03 µM
DC50 [1]: < 0.25 µM
Kd [2]: 6.13 µM
DC50 [2]: 4.29 µM
IC50 [3]: 4.2 µM

CNCCOc1c(-c2ccccc2)[nH]c(=O)c2ccccc12 [Compound 16, 4-(2-Methylamino-ethoxy)-3-phenyl-2H-isoquinolin-1-one]
Kd [1]: < 0.03 µM
DC50 [1]: < 0.25 µM
Kd [2]: 2.44 µM
IC50 [3]: 0.48 µM

CN(C)CCOc1c(-c2ccccc2)[nH]c(=O)c2ccccc12 [Compound 17, 4-(2-Dimethylamino-ethoxy)-3-phenyl-2H-isoquinolin-1-one]
Kd [1]: < 0.03 µM
DC50 [1]: < 0.25 µM
Kd [2]: 1.01 µM
DC50 [2]: 3.28 µM
IC50 [3]: 0.34 µM

CCN(CC)CCCOc1c(-c2ccccc2)[nH]c(=O)c2ccccc12 [Compound 18, 4-(3-Diethylamino-propoxy)-3-phenyl-2H-isoquinolin-1-one hydrochloride]
Kd [1]: < 0.03 µM
DC50 [1]: < 0.25 µM
Kd [2]: 8.65 µM
IC50 [3]: 0.85 µM

CN1CCN(CCOc2c(-c3ccccc3)[nH]c(=O)c3ccccc23)CC1 [Compound 19, 4-[2-(4-Methyl-piperazin-1-yl)-ethoxy]-3-phenyl-2H-isoquinolin-1-one di hydrochloride]
Kd [1]: < 0.03 µM
DC50 [1]: < 0.25 µM
Kd [2]: 7.29 µM

CN1CCN(CCCOc2c(-c3ccccc3)[nH]c(=O)c3ccccc23)CC1 [Compound 20, 4-[3-(4-Methyl-piperazin-1-yl)-propoxy]-3-phenyl-2H-isoquinolin-1-one di hydrochloride]
Kd [1]: 0.05 µM
DC50 [1]: < 0.25 µM
Kd [2]: 5.35 µM
DC50 [2]: 5.52 µM
IC50 [3]: 6.5 µM

O=c1[nH]c(-c2ccccc2)c(OCCCN2CCCC2)c2ccccc12 [Compound 21, 3-Phenyl-4-(3-pyrrolidin-1-yl-propoxy)-2H-isoquinolin-1-one]
Kd [1]: 0.04 µM
DC50 [1]: < 0.25 µM
Kd [2]: 1.36 µM
DC50 [2]: 1.58 µM
IC50 [3]: 8.3 µM

NCCCCOc1c(-c2ccccc2)[nH]c(=O)c2ccccc12 [Compound 22, 4-(4-Amino-butoxy)-3-phenyl-2H-isoquinolin-1-one hydrochloride]
Kd [1]: < 0.03 µM
DC50 [1]: < 0.25 µM
Kd [2]: 1.34 µM
DC50 [2]: 4.08 µM
IC50 [3]: 9.5 µM

O=c1[nH]c(-c2ccccc2)c(OCCCN2CCCCC2)c2ccc(Cl)cc12 [Compound 37, 7-Chloro-3-phenyl-4-(3-piperidin-1-yl-propoxy)-2H-isoquinolin-1-one]
DC50 [1]: < 0.25 µM
IC50 [3]: 0.62 µM

O=c1[nH]c(-c2ccccc2)c(OCCCN2CCCCC2)c2ccc(F)cc12 [Compound 38, 7-Fluoro-3-phenyl-4-(3-piperidin-1-yl-propoxy)-2H-isoquinolin-1-one]
DC50 [1]: < 0.25 µM
DC50 [2]: 3.78 µM
IC50 [3]: 0.3 µM
